Experimental data taken from patent US6350609B1, “Electrospraying for mass fabrication of chips and libraries” (New York University, priority 1997, dated 2002).

Target: T1, Alkaline phosphatase (AP) from bovine intestinal mucosa (Bos taurus, UniProt P19111)
T1 construct: purchased Sigma Chemical Co., St. Louis, Mo; host or cells: bovine intestinal mucosa
Assay: Effect of AgNO3 added to AP solution on AP activity
Type: biochemical
Conditions: 10^−4 M AgNO3 added to the AP solution
Procedure: AP activity was measured immediately after spot extraction by adding 5-20 μL of the extract solution to 1.0 mL of the p-NPP solution in the TRIS/HCl buffer prepared from Sigma Fast tablets. Activity was measured in a room with a thermostat, with a temperature of 25±1° C. […] The specific activity was calculated using protein concentration measured gravimetrically, as described above in the mass measurement section.
It is believed, therefore, that the inactivation of AP at high voltages and currents occur outside the capillary as a result of reaction with the products of corona discharge or as the result of impact with the target electrode. Impact energy should grow with an increase of the potential, causing protein distraction on impact. This can explain the increase in AP inactivation with increasing voltage and current. The generation of corona products in electrospray deposition at I>200-300 nA was noticeable from a characteristic smell of ozone in the electrospray chamber. […] The capillary with the external electrode supports corona discharge more readily than the capillary with the internal electrode, which explains why AP is inactivated at lower currents and to a higher extent when electrospray deposited from the capillary with the external electrode.

T1 sequence (P19111 20-506): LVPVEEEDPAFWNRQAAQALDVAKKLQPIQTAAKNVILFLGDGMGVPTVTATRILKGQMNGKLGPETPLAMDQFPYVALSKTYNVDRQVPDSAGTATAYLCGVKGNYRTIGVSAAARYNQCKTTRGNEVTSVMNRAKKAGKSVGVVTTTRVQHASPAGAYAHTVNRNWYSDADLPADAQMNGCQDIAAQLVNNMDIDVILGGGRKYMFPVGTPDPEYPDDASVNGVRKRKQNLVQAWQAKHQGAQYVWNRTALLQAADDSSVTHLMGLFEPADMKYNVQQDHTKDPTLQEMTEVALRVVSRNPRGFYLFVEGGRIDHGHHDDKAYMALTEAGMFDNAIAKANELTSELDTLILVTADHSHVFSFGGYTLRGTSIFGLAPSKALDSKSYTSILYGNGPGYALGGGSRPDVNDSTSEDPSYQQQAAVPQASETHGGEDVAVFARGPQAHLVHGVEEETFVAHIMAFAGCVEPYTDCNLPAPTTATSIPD

O=[N+]([O-])[O-].[Ag+] [AgNO3]
inhibition of AP: does not result in any inhibition
